Measurements as given in ChEMBL document CHEMBL3045651, “Nymania-3: a bioactive triterpenoid from Dysoxylum malabaricum” (1999).

Experiments:
Assay type in all cases: functional
Olepa ricini [1] = assay: Antifeedant activity against Olepa ricini fed on compound pre-treated castor leaves assessed as insect mortality at 0.5 ug/cm2 by dual choice leaf disk method (reference value: 4%); conditions: foliar
Olepa ricini [2] = assay: Antifeedant activity against Olepa ricini fed on compound pre-treated castor leaves assessed as pupal weight at 0.5 ug/cm2 by dual choice leaf disk method (reference value: 476 +/- 10.6 mg)
Olepa ricini [3] = assay: Antifeedant activity against Olepa ricini fed on compound pre-treated castor leaves assessed as duration of development of pupa at 0.5 ug/cm2 by dual choice leaf disk method (reference value: 7.5 +/- 0.3 days)
Olepa ricini [4] = assay: Antifeedant activity against Olepa ricini fed on compound pre-treated castor leaves assessed as duration of development of fifth-instar larvae at 0.5 ug/cm2 by dual choice leaf disk method (reference value: 4.5 +/- 0.4 days)
Olepa ricini [5] = assay: Antifeedant activity against Olepa ricini fed on compound pre-treated castor leaves assessed as duration of development of fourth-instar larvae at 0.5 ug/cm2 by dual choice leaf disk method (reference value: 7.5 +/- 0.2 days)
Olepa ricini [6] = assay: Antifeedant activity against Olepa ricini fed on compound pre-treated castor leaves assessed as duration of development of third-instar larvae at 0.5 ug/cm2 by dual choice leaf disk method (reference value: 4.5 +/- 0.7 days)
Olepa ricini [7] = assay: Antifeedant activity against Olepa ricini fed on compound pre-treated castor leaves assessed as percent feeding index at 50 ug/cm2 by dual choice leaf disk method
Olepa ricini [8] = assay: Antifeedant activity against Olepa ricini fed on compound pre-treated castor leaves assessed as percent feeding index at 10 ug/cm2 by dual choice leaf disk method
Olepa ricini [9] = assay: Antifeedant activity against Olepa ricini fed on compound pre-treated castor leaves assessed as percent feeding index at 5 ug/cm2 by dual choice leaf disk method
Olepa ricini [10] = assay: Antifeedant activity against Olepa ricini fed on compound pre-treated castor leaves assessed as percent feeding index at 1 ug/cm2 by dual choice leaf disk method
Olepa ricini [11] = assay: Antifeedant activity against Olepa ricini fed on compound pre-treated castor leaves assessed as insect mortality at 1 ug/cm2 by dual choice leaf disk method (reference value: 4%); conditions: foliar
Olepa ricini [12] = assay: Antifeedant activity against Olepa ricini fed on compound pre-treated castor leaves assessed as pupal weight at 1 ug/cm2 by dual choice leaf disk method (reference value: 476 +/- 10.6 mg)
Olepa ricini [13] = assay: Antifeedant activity against Olepa ricini fed on compound pre-treated castor leaves assessed as duration of development of pupa at 1 ug/cm2 by dual choice leaf disk method (reference value: 7.5 +/- 0.3 days)
Olepa ricini [14] = assay: Antifeedant activity against Olepa ricini fed on compound pre-treated castor leaves assessed as duration of development of fifth-instar larvae at 1 ug/cm2 by dual choice leaf disk method (reference value: 4.5 +/- 0.4 days)
Olepa ricini [15] = assay: Antifeedant activity against Olepa ricini fed on compound pre-treated castor leaves assessed as duration of development of fourth-instar larvae at 1 ug/cm2 by dual choice leaf disk method (reference value: 7.5 +/- 0.2 days)
Olepa ricini [16] = assay: Antifeedant activity against Olepa ricini fed on compound pre-treated castor leaves assessed as duration of development of third-instar larvae at 1 ug/cm2 by dual choice leaf disk method (reference value: 4.5 +/- 0.7 days)

Row | Compound | mortality at 0.5 µg/cm2 (Olepa ricini [1]) | Activity (Olepa ricini [2]) | Time (Olepa ricini [3]) | Time (Olepa ricini [4]) | Time (Olepa ricini [5]) | Time (Olepa ricini [6]) | FI (Olepa ricini [7]) | FI (Olepa ricini [8]) | FI (Olepa ricini [9]) | FI (Olepa ricini [10]) | mortality at 1 µg/cm2 (Olepa ricini [11]) | Activity (Olepa ricini [12]) | Time (Olepa ricini [13]) | Time (Olepa ricini [14]) | Time (Olepa ricini [15]) | Time (Olepa ricini [16])
1 | C/C=C(\C)C(=O)O[C@H]1C[C@@H](OC(C)=O)[C@@]2(C(=O)OC)CO[C@H]3[C@@H](O)[C@@](C)([C@]45O[C@@]4(C)[C@H]4C[C@@H]5O[C@@H]5OC=C[C@@]54O)[C@H]4[C@]1(CO[C@]4(O)C(=O)OC)[C@@H]32 [AZADIRACTIN] | 16% | 344 mg | 7.4 days | 5.7 days | 8.6 days | 7 days | 10% | 12.5% | 15.6% | 20.8% | – | – | – | – | – | –
2 | C=C1[C@@H]([C@@]2(C)C=CC(=O)OC(C)(C)[C@@H]2CC(=O)OC)[C@@H](OC(C)=O)[C@H](OC(C)=O)[C@@]2(C)[C@@H](c3ccoc3)C[C@H]3O[C@]132 [NYMANIA] | – | – | – | – | – | – | 19.5% | 23.4% | 30% | 33.5% | 16% | 428 mg | 7.4 days | 5.3 days | 8.8 days | 6.8 days
